Test [1] deals with human PBMCs. The test is described as follows: CD3/CD28 stimulated IL-2 release NECA reversal assay in human PBMCs. The test is classed as cell-based. The following applies: PBMC, reversal of 1 uM NECA, 24 hours. How it is done:
Blood is drawn from healthy volunteers using sodium citrate as the anticoagulant (0.3% final concentration). After centrifugation of the blood over Histopaque-1077, PBMCs are collected from the Histopaque/plasma interface and washed twice in PBS (300 g for 10 mins at room temp). Cells are plated at 50,000 cells/well in 150 μl RPMI/10% FCS in 96-well cell culture plates that have been precoated with 1 μg/ml CD3 antibody. 50 μl diluted compound mix is added to the cells, to obtain final concentrations of 1 μg/ml CD28 antibody, 1 uM NECA and 0.003-10 μM adenosine receptor antagonist. Assay plates are incubated for 24 hours at 37° C. in a humidified incubator. Culture supernatant is tested for IL-2 levels using the human IL-2 Tissue Culture Kit (Meso Scale Discovery).

Test [2] relates to immature monocyte-derived dendritic cells (MoDC). The experiment in a line: MoDC pCREB assay. Type of test: cell-based. As to conditions: Homo sapiens, Dendritic cell, CD209+/CD86-low cells, 1 μM NECA, 20 μM rolipram, largely specific to A2B. How it is done: Monocytes are isolated from human whole blood using CD14 microbeads (Miltenyi Biotec 130-050-201) and differentiated to immature monocyte-derived dendritic cells (MoDC) by culture for 5 days in Mo-DC Differentiation Medium (Miltenyi Biotec 130-094-812). MoDCs are seeded into fresh medium into U bottomed 96 well culture plates and pre-incubated at 37° C. with serial dilutions of A2A/B antagonists for 15 min. At the same time the cells are co-incubated with the phosphodiesterase inhibitor rolipram (final concentration of 20 μM) to amplify the subsequent pCREB response. Adenosine receptor agonist NECA is then added at 1 μM final concentration, leading to an increase in CREB phosphorylation. Following a 45 min incubation at 37° C., the cells are fixed, permeabilized and stained with directly conjugated fluorescent antibodies to phospho-CREB (Alexa Fluor 488), CD209 (PerCP-Cy5.5) and CD86 (APC). Samples are analysed by FACS to measure fluorescence in corresponding channels, and also forward and Side scatter. The population of CD209+/CD86-low cells corresponding to immature dendritic cells is gated for analysis of pCREB levels.
Approximately 5% of the analysed cells are positive for detection of pCREB in the absence of agonist stimulation, representing the background signalling of all pathways upstream of CREB. Following NECA stimulation this is increased to ˜80% pCREB+ve, and this increase is essentially fully reversible by A2B or dual A2A/B antagonists.
IC50 is represented as the point of inflection of a sigmoidal curve

Test [3] relates to CD8+ T cells in human whole blood. The experiment in a line: Measurement of pCREB in CD8+ T cells in human whole blood. Type of test: cell-based. The following applies: T-cell, 3 μM NECA, rolipram, FACS. The method, then: Heparinised human whole blood was pre-incubated at 37° C. with serial dilutions of A2a antagonists for 20 min. and the phosphodiesterase inhibitor rolipram to amplify the pCREB response. The adenosine receptor agonist NECA is then added at a final concentration of 3 μM and following a 60 min incubation the blood is fixed and red blood cells lysed. White blood cells are isolated, permeabilized and stained with directly conjugated fluorescent antibodies to phospho-CREB (Alexa Fluor 488) and CD8 (Alexa Fluor 647) and the level of phospho-CREB in CD8+ T cells is measured by FACS using a BD Accuri C6 Flow Cytometer.

Test [4] concerns the target human Adenosine A2b receptor (Homo sapiens (Human), UniProt P29275). The test is described as follows: Adenosine receptor TR-FRET binding assay (A2b). As to conditions: inhibition of binding of 30 nM CA200645; CHO cell membranes; Ki from IC50 by Cheng and Prusoff. The procedure, abridged:
(§1)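 Compounds incubated 2 h at room temperature with membranes from CHO cells expressing terbium-labelled human receptors, competing with the fluorescent antagonist CA200645 (30 nM for A2b; 100 nM for A1, A2a and A3). Read by TR-FRET (665/620 nm); non-specific binding defined with 10 μM XAC. Ki derived from IC50 via Cheng-Prusoff.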
For orientation: Time-resolved FRET reads energy transfer from a long-lived donor to a nearby acceptor.

The target of test [5] is human Adenosine A2a receptor (Homo sapiens (Human), UniProt P29274). The experiment in a line: Adenosine receptor TR-FRET binding assay (A2a). The method, boiled down:
as §1

The target of test [6] is human Adenosine A1 receptor (Homo sapiens (Human), UniProt P30542). The experiment in a line: Adenosine receptor TR-FRET binding assay (A1). The procedure, abridged: as §1
Chain of human Adenosine A1 receptor (P30542 whole entry): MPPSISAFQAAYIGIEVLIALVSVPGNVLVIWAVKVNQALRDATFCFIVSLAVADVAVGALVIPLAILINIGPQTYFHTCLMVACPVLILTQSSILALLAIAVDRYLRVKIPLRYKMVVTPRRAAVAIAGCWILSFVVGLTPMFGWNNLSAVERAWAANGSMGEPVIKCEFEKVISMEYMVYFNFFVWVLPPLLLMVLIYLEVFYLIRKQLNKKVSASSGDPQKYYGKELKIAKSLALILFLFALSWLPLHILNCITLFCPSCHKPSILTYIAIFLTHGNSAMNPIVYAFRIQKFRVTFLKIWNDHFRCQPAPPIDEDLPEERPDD
Setting [7] is: inhibition of binding of 100 nM CA200645, CHO cell membranes, Ki from IC50 by Cheng and Prusoff.

Read-outs that look alike come from different tables or passages of the source.

Chain of human Adenosine A2a receptor (P29274 whole entry): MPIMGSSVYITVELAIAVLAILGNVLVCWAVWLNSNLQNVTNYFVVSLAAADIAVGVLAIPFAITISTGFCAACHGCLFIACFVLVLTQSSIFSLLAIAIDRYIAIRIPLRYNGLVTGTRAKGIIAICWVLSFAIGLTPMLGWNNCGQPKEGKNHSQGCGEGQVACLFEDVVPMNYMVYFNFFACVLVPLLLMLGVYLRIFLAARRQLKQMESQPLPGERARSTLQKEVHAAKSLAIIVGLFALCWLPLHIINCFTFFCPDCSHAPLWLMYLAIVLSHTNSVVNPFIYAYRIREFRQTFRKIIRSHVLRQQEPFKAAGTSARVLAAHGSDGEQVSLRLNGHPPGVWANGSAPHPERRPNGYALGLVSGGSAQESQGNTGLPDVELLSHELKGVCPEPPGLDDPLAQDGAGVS
Chain of human Adenosine A2b receptor (P29275 whole entry): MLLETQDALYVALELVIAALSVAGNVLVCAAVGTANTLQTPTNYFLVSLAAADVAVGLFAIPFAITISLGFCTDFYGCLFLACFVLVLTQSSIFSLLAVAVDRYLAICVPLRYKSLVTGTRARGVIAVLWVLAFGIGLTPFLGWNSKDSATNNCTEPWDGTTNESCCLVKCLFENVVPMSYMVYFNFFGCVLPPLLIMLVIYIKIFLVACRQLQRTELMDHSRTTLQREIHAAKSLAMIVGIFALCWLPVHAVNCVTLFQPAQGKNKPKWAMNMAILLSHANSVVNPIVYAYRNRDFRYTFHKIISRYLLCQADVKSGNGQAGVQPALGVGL

As to `Cc1ncnc2ccc(-c3sc(NC(=O)N4CCC5(CCC(=O)N5)CC4)nc3-c3cccc(C#N)c3)cc12` [Example 7.23, N-[4-(3-Cyanophenyl)-5-(4-methylquinazolin-6-yl)thiazol-2-yl]-2-oxo-1,8-diazaspiro[4.5]decane-8-carboxamide], the IC50 (as a rule, the concentration needed to halve the response being measured) in test [1] was 0.8 nM; in test [2], 3 nM; in test [3], 30 nM. Further, the values for the Ki in test [4], in test [5] (setting [7]) and in test [6] (setting [7]) were 1.1 nM, 0.13 nM and 10 nM, respectively.

In the case of `Cc1ncnc2ccc(-c3sc(NC(=O)N4CC5(CNCCO5)C4)nc3-c3cccc(C#N)c3)cc12` [Example 4.1, N-[4-(3-Cyanophenyl)-5-(4-methylquinazolin-6-yl)thiazol-2-yl]-5-oxa-2,8-diazaspiro[3.5]nonane-2-carboxamide], the IC50 in test [1] turned out to be 1.8 nM; in test [2], 2 nM; in test [3], 8 nM. The Ki (commonly the dissociation constant of the complex between target and ligand, obtained from inhibition or displacement) in test [4] was 1.1 nM; in test [5], 0.14 nM; in test [6], 42 nM.

As to `Cc1ncnc2ccc(-c3sc(NC(=O)N4CCC5(CC4)CN(C)C(=O)O5)nc3-c3cccc(C#N)c3)cc12` [Example 7.26, N-[4-(3-Cyanophenyl)-5-(4-methylquinazolin-6-yl)thiazol-2-yl]-3-methyl-2-oxo-1-oxa-3,8-diazaspiro[4.5]decane-8-carboxamide], the half-inhibitory concentration (IC50) in test [1] was determined as 0.5 nM; in test [2], 2 nM; in test [3], 15 nM. For the same compound, the Ki is 1.8 nM in test [4], 0.13 nM in test [5] (setting [7]) and 19 nM in test [6] (setting [7]).

As for `Cc1ncnc2ccc(-c3sc(NC(=O)N4CCNCC4CC4CC4)nc3-c3cccc(C#N)c3)cc12` (stereo not drawn) [Example 2.1, N-[4-(3-Cyanophenyl)-5-(4-methylquinazolin-6-yl)thiazol-2-yl]-2-(cyclopropylmethyl)piperazine-1-carboxamide], the results for the IC50 in test [1], in test [2] and in test [3] were 1.8 nM, 3 nM and 50 nM, respectively. In addition, the inhibition constant (Ki) in test [4] was determined as 2.5 nM; in test [5] (setting [7]), 0.25 nM; in test [6] (setting [7]), 12 nM.

As to `Cc1ncnc2ccc(-c3sc(NC(=O)N4CC5(C4)CC(C)(O)C5)nc3-c3cccc(C#N)c3)cc12` [Example 7.24, N-[4-(3-Cyanophenyl)-5-(4-methylquinazolin-6-yl)thiazol-2-yl]-6-hydroxy-6-methyl-2-azaspiro[3.3]heptane-2-carboxamide], the results for the IC50 in test [1], in test [2] and in test [3] were 0.7 nM, 2 nM and 12 nM, respectively. Moreover, the values for the Ki in test [4], in test [5] (setting [7]) and in test [6] (setting [7]) were 1.3 nM, 0.14 nM and 18 nM, respectively.

These data come from patent US20250243194A1, “ANTAGONIST OF ADENOSINE RECEPTORS” (AdoRx Therapeutics Limited, priority 2022, published 2025).
